51 compounds from US12064426B2, “Selective inhibitors of ROCK1 and ROCK2 protein kinases and uses thereof” (GENOSCO Inc., priority 2021, dated 2024) can be followed below.

In experiment [1] the target is T1, Recombinant ROCK1 (amino acids 1-477) (Homo sapiens, UniProt Q13464).
T1 construct: Recombinant ROCK1 (amino acids 1-477); by word order, ROCK1 from Carna Biosciences
Description: ROCK inhibition assay, LANCE Ultra TR-FRET kinase assay (ROCK1). Type of experiment: biochemical. The following applies: 1 μM ATP, 50 nM ULight-CREBtide substrate. In a few lines: (§1)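 LANCE Ultra TR-FRET kinase assay with recombinant ROCK1 (aa 1-477) or ROCK2 (aa 5-554), 50 nM ULight-CREBtide and ATP at 1 μM (ROCK1) or 4 μM (ROCK2) in HEPES pH 7.5 with MgCl2, 1 h at room temperature. EDTA stop with Eu anti-phospho-CREB Ser133 antibody; 665/615 nm read gives IC50.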

Experiment [2] deals with T2, Recombinant ROCK2 (amino acids 5-554) (Homo sapiens, UniProt O75116).
T2 construct: ROCK2 (amino acids 5-554); by word order, ROCK2 from SignalChem
T2 sequence (O75116 5-554): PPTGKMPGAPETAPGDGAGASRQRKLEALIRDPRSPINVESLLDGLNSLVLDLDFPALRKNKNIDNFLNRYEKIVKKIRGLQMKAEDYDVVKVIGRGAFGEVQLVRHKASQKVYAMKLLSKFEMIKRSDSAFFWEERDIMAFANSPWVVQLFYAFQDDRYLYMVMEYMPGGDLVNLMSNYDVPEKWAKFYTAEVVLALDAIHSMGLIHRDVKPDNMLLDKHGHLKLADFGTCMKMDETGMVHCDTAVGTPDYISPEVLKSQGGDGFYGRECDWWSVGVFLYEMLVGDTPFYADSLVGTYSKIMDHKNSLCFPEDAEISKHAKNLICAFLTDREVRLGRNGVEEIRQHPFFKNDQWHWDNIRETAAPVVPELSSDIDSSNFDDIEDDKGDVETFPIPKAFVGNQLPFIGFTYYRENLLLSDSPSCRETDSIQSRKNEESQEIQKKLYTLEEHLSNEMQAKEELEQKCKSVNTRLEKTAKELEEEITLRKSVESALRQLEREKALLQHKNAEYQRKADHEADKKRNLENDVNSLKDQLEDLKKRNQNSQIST
The experiment is described as follows: ROCK inhibition assay, LANCE Ultra TR-FRET kinase assay (ROCK2). The format is biochemical. The following applies: 4 μM ATP, 50 nM ULight-CREBtide substrate. In a few lines: as §1

What is called IC50 is the point on the concentration scale where inhibition reaches its midpoint.

T1 sequence (Q13464 1-477): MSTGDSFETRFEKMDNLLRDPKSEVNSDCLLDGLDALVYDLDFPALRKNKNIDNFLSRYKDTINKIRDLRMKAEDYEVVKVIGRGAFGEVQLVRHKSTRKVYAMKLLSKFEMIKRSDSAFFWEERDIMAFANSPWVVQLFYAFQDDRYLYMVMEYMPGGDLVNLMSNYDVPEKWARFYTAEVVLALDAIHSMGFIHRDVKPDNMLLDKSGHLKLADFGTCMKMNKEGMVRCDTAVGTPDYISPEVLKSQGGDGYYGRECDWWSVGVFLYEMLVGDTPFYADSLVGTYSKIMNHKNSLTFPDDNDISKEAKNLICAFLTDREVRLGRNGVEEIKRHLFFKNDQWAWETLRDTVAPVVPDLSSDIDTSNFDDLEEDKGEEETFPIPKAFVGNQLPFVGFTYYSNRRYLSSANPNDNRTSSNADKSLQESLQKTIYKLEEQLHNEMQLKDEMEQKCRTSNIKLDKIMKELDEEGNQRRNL

Consider `CN1CCC(CNC(=O)c2cccc(Cn3cnc4cc(-c5cn[nH]c5C(F)F)ccc4c3=O)c2)CC1` [Compound 395], for which the IC50 in experiment [1] and in experiment [2] was less than 10 nM in each case.
`CN1CCC(NC(=O)c2cc(F)cc(Cn3ccc4cc(-c5c[nH]nc5C(F)(F)F)ccc4c3=O)c2)CC1` [Compound 132]: the IC50 in experiment [1] and in experiment [2] was less than 10 nM throughout.
In the case of `Cc1nocc1-c1ccc2c(=O)n(Cc3cc(F)cc(C(=O)NCC4CCN(C(C)C)CC4)c3)ccc2c1` [Compound 152], the figures for the IC50 in experiment [1] and in experiment [2] were 101 to 500 nM and 10 to 100 nM, respectively.
Turning to `COc1cccc(Cn2cnc3cc(-c4conc4C)ccc3c2=O)c1` [Compound 357], the IC50 in experiment [1] fell in the range of 11 to 100 nM; in experiment [2], 10 to 100 nM.
As to `CNC(=O)c1cccc(Cn2cc(CCN(C)C)c3cc(-c4cn[nH]c4Cl)ccc3c2=O)c1` [Compound 564], the half-inhibitory concentration (IC50) in experiment [1] is 11 to 100 nM; in experiment [2], less than 10 nM.
On to `O=C(NCC1COC1)c1cc(F)cc(Cn2ccc3cc(-c4c[nH]nc4C(F)F)ccc3c2=O)c1` [Compound 59], for which the figures for the IC50 in experiment [1] and in experiment [2] were 11 to 100 nM and less than 10 nM, respectively.
Regarding `Cc1n[nH]cc1-c1ccc2c(=O)n(Cc3cccc(C(=O)Nc4cccc(S(N)(=O)=O)c4)c3)ccc2c1` [Compound 34], the values for the IC50 in experiment [1] and in experiment [2] were more than 501 nM and 100 to 500 nM, respectively.
Take `CS(=O)(=O)Nc1cccc(CNC(=O)c2cccc(Cn3cnc4cc(-c5cn[nH]c5C(F)F)ccc4c3=O)c2)c1` [Compound 399]: the half-inhibitory concentration (IC50) lay within 101 to 500 nM in experiment [1] and 10 to 100 nM in experiment [2].
Take `Cc1nocc1-c1ccc2c(=O)n([C@H](C)c3cccc(C(=O)N(C)C)c3)cnc2c1` [Compound 470]: the IC50 was more than 501 nM in experiment [1] and more than 500 nM in experiment [2].
With `O=C(NCC1CCNCC1)c1cccc(Cn2ccc3cc(-c4c[nH]nc4C(F)F)ccc3c2=O)c1` [Compound 57], the IC50 in experiment [1] and in experiment [2] was less than 10 nM throughout.
As for `CNC(=O)c1cc(F)cc(Cn2ccc3cc(-c4cn[nH]c4C)ncc3c2=O)c1` [Compound 248], the IC50 in experiment [1] lay in the range of 11 to 100 nM; in experiment [2], 10 to 100 nM.
In the same order, the values of `Cc1nocc1-c1ccc2c(=O)n(C(CN)c3cccc(Cl)c3)cnc2c1` (stereo not drawn) [Compound 497] are 11 to 100 nM and less than 10 nM.
In the same order, the values of `O=C(NC1CCOCC1)c1cc(F)cc(Cn2ccc3cc(-c4c[nH]nc4C(F)(F)F)ccc3c2=O)c1` [Compound 130] are 11 to 100 nM and 10 to 100 nM.
For `Cc1nocc1-c1ccc2c(=O)n(Cc3cccc(C(=O)NCC4COC4)c3)ccc2c1` [Compound 71], in that order: 11 to 100 nM and less than 10 nM.
As for `O=C(NCC1CCOCC1)c1cccc(Cn2cnc3cc(-c4cn[nH]c4C(F)(F)F)ccc3c2=O)c1` [Compound 379], the half-inhibitory concentration (IC50) in experiment [1] is 11 to 100 nM; in experiment [2] it was less than 10 nM.
`CC(=O)Nc1cc(Cn2ccc3cc(-c4cnoc4C)ccc3c2=O)ccc1F` [Compound 335]: the values for the IC50 in experiment [1] and in experiment [2] were 101 to 500 nM and 10 to 100 nM, respectively.
`Cn1nccc1-c1ccc2c(=O)n(Cc3cccc(C(=O)N[C@H]4C[C@@H](O)C4)c3)cnc2c1` [Compound 427]: the IC50 was 11 to 100 nM in experiment [1] and less than 10 nM in experiment [2].
With `O=C(NCCc1cccc(F)n1)c1cccc(Cn2ccc3cc(-c4c[nH]nc4C(F)(F)F)ccc3c2=O)c1` [Compound 54], the IC50 was 11 to 100 nM in experiment [1] and less than 10 nM in experiment [2].
Consider `CC(C)N1CCC(NC(=O)c2cccc(Cn3ccc4cc(-c5ccnn5C)ccc4c3=O)c2)CC1` [Compound 118], for which the IC50 in experiment [1] lay in the range of 101 to 500 nM; in experiment [2], 10 to 100 nM.
As for `O=C(N[C@H]1CC[C@H](O)CC1)c1cc(F)cc(Cn2ccc3cc(-c4c[nH]nc4Cl)ncc3c2=O)c1` [Compound 263], the concentration for half-maximal inhibition (IC50) was 11 to 100 nM in experiment [1] and less than 10 nM in experiment [2].
In the case of `Nc1cc(-c2ccc3c(=O)n(Cc4cccc(C(=O)NC5CCCC5)c4)ccc3c2)ccn1` [Compound 198], the IC50 in experiment [1] was more than 501 nM; in experiment [2], 100 to 500 nM.
For the compound `Cc1nocc1-c1ccc2c(=O)n(Cc3cccc(C(=O)NCCN4CCOCC4)c3)ccc2c1` [Compound 69], the IC50 in experiment [1] is 101 to 500 nM; in experiment [2], 10 to 100 nM.
Turning to `O=C(NCC1CCOCC1)c1cccc(Cn2ccc3cc(-c4c[nH]nc4C(F)F)ccc3c2=O)c1` [Compound 55], the IC50 in experiment [1] is 11 to 100 nM; in experiment [2], less than 10 nM.
On to `CC(C)C(=O)Nc1cccc(Cn2ccc3cc(-c4c[nH]nc4C(F)(F)F)ccc3c2=O)c1` [Compound 338], for which the IC50 is 11 to 100 nM in experiment [1] and 10 to 100 nM in experiment [2].
Regarding `[2H]C([2H])([2H])NC(=O)c1cccc(Cn2ccc3cc(-c4cn[nH]c4C(F)(F)F)ncc3c2=O)c1` [Compound 234], the IC50 is 11 to 100 nM in experiment [1] and less than 10 nM in experiment [2].
For `Cc1[nH]ncc1-c1ccc2c(=O)n(C(CO)c3cccc(Cl)c3)cnc2c1` (stereo not drawn) [Compound 485], the IC50 fell in the range of 11 to 100 nM in experiment [1] and 10 to 100 nM in experiment [2].
`Cn1nccc1-c1ccc2c(=O)n(Cc3cccc(C(=O)N[C@H]4CC[C@@H](O)CC4)c3)ccc2c1` [Compound 116]: the IC50 was in the range of 101 to 500 nM in experiment [1] and 10 to 100 nM in experiment [2].
For `COc1cccc(C(CO)n2cnc3cc(-c4cn[nH]c4C(F)(F)F)ccc3c2=O)c1` (stereo not drawn) [Compound 490], the IC50 was 11 to 100 nM in experiment [1] and 10 to 100 nM in experiment [2].
As to `C[C@H](c1cccc(C(=O)NCC2CCOCC2)c1)n1cnc2cc(-c3cn[nH]c3C(F)F)ccc2c1=O` [Compound 462], the IC50 was 11 to 100 nM in experiment [1] and less than 10 nM in experiment [2].
Take `N#Cc1cccc(C(CN)n2cnc3cc(-c4cn[nH]c4C(F)(F)F)ccc3c2=O)c1` (stereo not drawn) [Compound 503]: the IC50 in experiment [1] was more than 501 nM; in experiment [2], 100 to 500 nM.
Regarding `Nc1cc(-c2ccc3c(=O)n(Cc4cccc(C(=O)NCCc5ccccc5)c4)ccc3c2)ccn1` [Compound 185], the IC50 fell in the range of 101 to 500 nM in experiment [1] and 10 to 100 nM in experiment [2].
Regarding `CNC(=O)c1cccc(Cn2ccc3cc(-c4cnoc4)ccc3c2=O)c1` [Compound 300], the IC50 in experiment [1] was more than 501 nM; in experiment [2], more than 500 nM.
With `Cc1nocc1-c1ccc2c(=O)n(Cc3cccc(C(=O)Nc4ccc5c(c4)CCN(C(C)C)C5)c3)ccc2c1` [Compound 98], the IC50 in experiment [1] and in experiment [2] was less than 10 nM in each case.
With `Cc1nocc1-c1ccc2c(=O)n(Cc3cccc(C(=O)Nc4ccc5c(c4)COCC5)c3)ccc2c1` [Compound 92], the IC50 is 11 to 100 nM in experiment [1] and less than 10 nM in experiment [2].
With `COc1cccc(Cn2ccc3cc(-c4c[nH]nc4Cl)ccc3c2=O)c1` [Compound 18], the 50% inhibitory concentration (IC50) was 11 to 100 nM in experiment [1] and less than 10 nM in experiment [2].
For the compound `CC(C)NC(=O)c1cccc(Cn2ccc3cc(-c4cn[nH]c4)ccc3c2=O)c1` [Compound 28], the IC50 fell in the range of 101 to 500 nM in experiment [1] and 10 to 100 nM in experiment [2].
As to `CNC(=O)c1cccc(Cn2cc(CCO)c3cc(-c4cn[nH]c4Cl)ccc3c2=O)c1` [Compound 550], the IC50 in experiment [1] was 11 to 100 nM; in experiment [2], less than 10 nM.
`CNC(=O)c1cccc(Cn2cnc3cc(-c4cn[nH]c4Cl)ccc3c2=O)c1` [Compound 404]: the IC50 in experiment [1] and in experiment [2] was less than 10 nM throughout.
Take `CNC(=O)c1cccc([C@@H](C)n2cnc3cc(-c4cn[nH]c4N)ccc3c2=O)c1` [Compound 518]: the IC50 was 11 to 100 nM in experiment [1] and less than 10 nM in experiment [2].
On to `Cc1nocc1-c1ccc2c(=O)n(Cc3cccc(C(=O)NCC4CCN(CC(F)(F)F)CC4)c3)ccc2c1` [Compound 83], for which the IC50 in experiment [1] fell in the range of 101 to 500 nM; in experiment [2], 10 to 100 nM.
For `Cn1nccc1-c1ccc2c(=O)n(Cc3cc(F)cc(C(=O)NC4CCOCC4)c3)ccc2c1` [Compound 166], in that order: 101 to 500 nM and 10 to 100 nM.
As to `COc1cccc(C(CN)n2cnc3cc(-c4cn[nH]c4C(F)(F)F)ccc3c2=O)c1` (stereo not drawn) [Compound 499], the half-inhibitory concentration (IC50) in experiment [1] and in experiment [2] was less than 10 nM in each case.
`CNC(=O)c1cc(F)cc(C(C)n2cnc3cc(-c4cn[nH]c4C(F)(F)F)ccc3c2=O)c1` (stereo not drawn) [Compound 388]: the IC50 in experiment [1] was 11 to 100 nM; in experiment [2] it was less than 10 nM.
With `[2H]C([2H])([2H])NC(=O)c1cccc(Cn2ccc3cc(-c4cn[nH]c4C(F)F)ncc3c2=O)c1` [Compound 238], the IC50 was 11 to 100 nM in experiment [1] and less than 10 nM in experiment [2].
Take `C[C@H](c1cccc(C(=O)NCCO)c1)n1cnc2cc(-c3ccnn3C)ccc2c1=O` [Compound 480]: the figures for the 50% inhibitory concentration (IC50) in experiment [1] and in experiment [2] were 101 to 500 nM and 10 to 100 nM, respectively.
For the compound `[2H]C([2H])([2H])NC(=O)c1cc(F)cc(Cn2cnc3cc(-c4conc4C)ccc3c2=O)c1` [Compound 423], the IC50 in experiment [1] is 11 to 100 nM; in experiment [2], less than 10 nM.
In the same order, the values of `O=C(NC1CCOCC1)c1cccc(Cn2ccc3cc(N4CCOCC4)ccc3c2=O)c1` [Compound 212] are more than 501 nM and 100 to 500 nM.
Take `O=C(N[C@H]1CC[C@@H](O)CC1)c1cc(F)cc(Cn2ccc3cc(-c4c[nH]nc4Cl)ccc3c2=O)c1` [Compound 66]: the IC50 in experiment [1] is 11 to 100 nM; in experiment [2], less than 10 nM.
On to `Cc1nocc1-c1ccc2c(=O)n(Cc3cc(F)cc(C(=O)N[C@H]4C[C@@H](O)C4)c3)ccc2c1` [Compound 137], for which the half-inhibitory concentration (IC50) in experiment [1] was 101 to 500 nM; in experiment [2] it was 10 to 100 nM.
For `C[C@H](c1cccc(C(=O)NC2CCOCC2)c1)n1cnc2cc(-c3cn[nH]c3C(F)(F)F)ccc2c1=O` [Compound 449], in that order: 11 to 100 nM and less than 10 nM.
In the same order, the values of `O=C(NCC1COC1)c1cccc(Cn2ccc3cc(-c4c[nH]nc4Cl)ccc3c2=O)c1` [Compound 63] are 11 to 100 nM and less than 10 nM.
